≈ marks a conversion by molar mass, not a printed value. Structures can show the parent of a compound that is named as a salt. Where two headings read alike, the source gives them in different places.
Columns and labels:
[1] = In-vitro dissolution testing of tablets (oral dosage forms); format: physicochemical
Description: According to the FDA's guidance, in vitro dissolution testing of a drug substance in its oral dosage forms can be properly designed to establish an In Vivo-In Vitro Correlation (IVIVC), i.e., the correlation between an in-vitro property of a dosage form and an in-vivo response. With this guidance, two batches of fumarate containing crystal forms D and S4 were used to prepare tablets, to evaluate any impact on performance of the drug product. Each of the two batches of fumarate and excipients were individually sieved before weighing. The desired weight of each component was then transferred into a shaker mixer and blended. Tableting for the two batches was then performed using a single punch tablet press.
The performance of these tablets was then evaluated using a properly validated dissolution test method.

[2] = Equilibrium solubility in bio-relevant media at ambient temperature; format: physicochemical; settings: for solubility thermodynamic: thermodynamic from solid
Method: Also, equilibrium solubilities were measured in various bio-relevant media at ambient temperature.

[3] = Intrinsic dissolution rate at pH 2; format: physicochemical
[4] = Dynamic vapor sorption (DVS) hygroscopicity measurement; format: physicochemical; settings: 25° C.
Method: Hygroscopicity measurements were performed by transferring about 10 mg of sample into a DVS instrument and subsequently recording the weight change with respect to the atmospheric humidity at 25° C. using the following parameters: […]

[5] = human, in vivo
Method: Patients were dosed in clinical trials approved by Health Canada and the Research Ethics Board of the Hospital administering the drug. Eight patients were administered the form S4 tablets, six at a dose level of 48 mg and two at a dose level of 160 mg. 64 patients were administered the form D tablets at doses ranging from 3-160 mg.
Blood was collected for analysis prior to dosing and 2, 4, and 6 h after dosing. Briefly, using standard phlebotomy procedures, approximately 6 mL of blood was collected into a K3EDTA blood collection tube and then inverted 8-10 times to mix. The sample was then centrifuged at 1,000 g for 10-15 min at approximately 5° C. The plasma fraction of the blood was removed using a disposable pipette, transferred to a new tube, frozen at −70° C. and subsequently shipped on dry ice for analysis.
Levels of compound (I) were measured in plasma using a method validated in accordance to all applicable USFDA, OECD and MHLW regulations and the USFDA Guidance for Industry: Bioanalytical Method Validation May 2001. […] After evaporation of the extraction solvent, the sample extracts were reconstituted and analyzed by reversed-phase HPLC using a Waters Atlantis dC18. […] The ionized compounds were detected using MS/MS. […] Pharmacokinetic parameters were determined using the Excel add in “PK Functions” […]

Row | SMILES | Dissolution Max ([1]; time 15) [%] | Dissolution Mean ([1]; time 15) [%] | Dissolution Min ([1]; time 15) [%] | Dissolution Max ([1]; time 30) [%] | Dissolution Mean ([1]; time 30) [%] | Dissolution Min ([1]; time 30) [%] | Dissolution Max ([1]; time 60 (60 min)) [%] | Dissolution Mean ([1]; time 60 (60 min)) [%] | Dissolution Min ([1]; time 60 (60 min)) [%] | solubility thermodynamic ([2]; fasted state simulating gastric fluid (FaSSGF), fassgf or other biorelevant, fasted state simulating gastric fluid (FaSSGF), read-out: equilibrium solubility in FaSSGF) [µg/mL] | solubility thermodynamic ([2]; fasted state simulating intestinal fluid (FaSSIF), fassif, fasted state simulating intestinal fluid (FaSSIF), read-out: equilibrium solubility in FaSSIF) [µg/mL] | Intrinsic dissolution rate [3] [μg/cm^2-min] | weight gain at 80% RH [4] [%] | equilibrium solubility in FaSSGF ([2]; fasted state simulating gastric fluid (FaSSGF)) [µg/mL] | equilibrium solubility in FaSSIF ([2]; fasted state simulating intestinal fluid (FaSSIF)) [µg/mL] | average dose-normalized exposure (AUC0-6 h divided by dose) [5] [ng·h/mL/mg]
1 | COc1ccc2c(c1)[C@]1(C[C@H]1c1ccc3c(/C=C/c4ccc(CN5C[C@@H](C)O[C@@H](C)C5)cc4)n[nH]c3c1)C(=O)N2 [form D] | 64 | 63 | 61 | 86 | 83 | 81 | 98 | 94 | 92 | 2080 (≈ 3890 µM) | 80 (≈ 150 µM) | 440.4 | 0.56 | – | – | –
2 | COc1ccc2c(c1)[C@]1(C[C@H]1c1ccc3c(/C=C/c4ccc(CN5C[C@@H](C)O[C@@H](C)C5)cc4)n[nH]c3c1)C(=O)N2 [form S4, (1R,2S)-(e)-2-(3-(4-((cis-2,6-dimethylmorpholino)methyl)styryl)-1 h-imidazol-6-yl)-5′-methoxyspiro[cyclopropane-1,3′-indolin]-2′-one fumarate] | 77 | 76 | 74 | 91 | 90 | 89 | 95 | 94 | 93 | – | – | 429.3 | 0.41 | 2520 | 50 | 5.99 ± 2.48
